{"source": "patent US11236059B2", "about": "“Targeted cytotoxic ratjadone derivatives and conjugates thereof” (HELMHOLTZ-ZENTRUM FUER INFEKTIONSFORSCHUNG GMBH, priority 2017, dated 2022)", "key": {"[1]": {"molecular_target": "T1, CRM1 (Homo sapiens, UniProt O14980)", "T1 construct": "HeLa cells stably expressing a fluorescent translocation biosensor (HeLaRevBio); endogenous in cells; host or cells: HeLa (HeLaRevBio in A7; HeLa in A8)", "T1 sequence (O14980 whole entry)": "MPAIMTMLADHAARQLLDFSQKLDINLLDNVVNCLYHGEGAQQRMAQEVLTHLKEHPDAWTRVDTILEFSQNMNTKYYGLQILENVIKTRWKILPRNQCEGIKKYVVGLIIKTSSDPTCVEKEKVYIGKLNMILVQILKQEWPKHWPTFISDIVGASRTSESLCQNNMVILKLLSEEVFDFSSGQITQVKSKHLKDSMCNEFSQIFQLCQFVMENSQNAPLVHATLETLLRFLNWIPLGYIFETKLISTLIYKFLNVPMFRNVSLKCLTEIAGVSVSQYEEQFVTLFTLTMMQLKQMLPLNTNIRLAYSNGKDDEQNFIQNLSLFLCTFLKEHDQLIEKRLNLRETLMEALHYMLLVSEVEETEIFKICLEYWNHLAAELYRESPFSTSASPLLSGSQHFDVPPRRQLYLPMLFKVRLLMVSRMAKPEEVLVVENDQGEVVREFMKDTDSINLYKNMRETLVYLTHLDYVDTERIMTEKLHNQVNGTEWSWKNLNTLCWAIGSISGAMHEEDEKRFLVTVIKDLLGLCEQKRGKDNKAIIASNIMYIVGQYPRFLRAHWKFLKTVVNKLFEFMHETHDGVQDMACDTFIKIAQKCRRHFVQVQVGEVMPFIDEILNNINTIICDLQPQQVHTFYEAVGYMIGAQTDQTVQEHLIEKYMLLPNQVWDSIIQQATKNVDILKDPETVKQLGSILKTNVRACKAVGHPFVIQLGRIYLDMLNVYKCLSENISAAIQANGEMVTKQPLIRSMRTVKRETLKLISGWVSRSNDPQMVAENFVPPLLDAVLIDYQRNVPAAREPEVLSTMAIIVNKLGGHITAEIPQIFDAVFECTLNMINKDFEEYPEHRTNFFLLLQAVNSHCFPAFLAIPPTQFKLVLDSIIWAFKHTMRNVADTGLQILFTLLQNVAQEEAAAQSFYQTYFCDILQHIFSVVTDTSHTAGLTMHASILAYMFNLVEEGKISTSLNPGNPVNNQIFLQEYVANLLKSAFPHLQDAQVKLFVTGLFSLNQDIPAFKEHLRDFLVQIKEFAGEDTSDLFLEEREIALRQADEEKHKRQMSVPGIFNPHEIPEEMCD", "assay": "Monitoring export inhibitory activity (translocation biosensor, HeLaRevBio cells)", "format": "cell-based", "method_in_brief": "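HeLa cells stably expressing an NLS-GST-GFP-RevNES shuttle biosensor were treated with compound for 1 h, then fixed and Hoechst-stained. GFP intensity in nuclear and cytoplasmic regions was quantified by high-content imaging, and the inner-minus-outer mean intensity difference was the readout. IC50 came from four-parameter logistic fit; single-point testing used 125 nM final.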"}, "[2]": {"molecular_target": "T2, nuclear export receptor Crm1 (Homo sapiens, UniProt O14980)", "T2 construct": "HeLa cells stably expressing a fluorescent translocation biosensor (HeLaRevBio); endogenous in cells; host or cells: HeLa (HeLaRevBio in A7; HeLa in A8)", "T2 sequence (O14980 whole entry)": "as above", "assay": "Pull-down with ratjadone-biotin, LC-MS proteomic target identification", "format": "binding", "conditions": "HeLa cells, 0.1 μg/ml, 5h; streptavidin sepharose; 79 proteins identified", "procedure": "Binding of Ratjadone to the nuclear export receptor Crm1 was shown in a chemical pull down. HeLa cells were treated with ratjadone-biotin, ratjadone or both at 0.1 μg/ml final concentration for 5h. Cells were detached by scraping, washed twice in PBS and lysed in MPER-buffer (Thermo Fisher, Waltham, USA) supplemented with complete protease inhibitor (Roche, Mannheim, Germany). After 5 min incubation on ice the lysate was centrifuged (20 min, 13000 rpm, 4° C.) and the supernatant was incubated with streptavidin sepharose high performance (GE healthcare, Freiburg, Germany) overnight at 4° C. The next day beads were washed twice with PBS and resuspended in elution buffer (Roth) and heated to 95° C. for 10 min. 5% were tested on WesternBlot with a biotin-specific antibody (see FIG. 11). The eluate was given to the proteomics platform (J. Wissing) for identification of proteins."}}, "data": [{"smiles": "C/C=C/[C@@H]1O[C@H]([C@H](/C=C/C=C(\\C)C[C@@H](C)/C=C(C)\\C=C\\[C@H]2CC=CC(=O)O2)NC(=O)OCCc2cn(CCOCCOCCOCCNC(=O)CCCC[C@@H]3SC[C@@H]4NC(=O)N[C@@H]43)nn2)C[C@@H](O)[C@@H]1C", "note": "[Biotin-PEG3-16S-Aminoratjadone, 2-(1-(13-oxo-17-((3aS,4S,6aR)-2-oxohexahydro-1H-thieno[3,4-d]imidazol-4-yl)-3,6,9-trioxa-12-azaheptadecyl)-1H-1,2,3-triazol-4-yl)ethyl ((1S,2E,4E,7R,8Z,10E)-1-((2S,4R,5S,6S)-4-hydroxy-5-methyl-6-((E)-prop-1-en-1-yl)tetrahydro-2H-pyran-2-yl)-5,7,9-trimethyl-11-((R)-6-oxo-3,6-dihydro-2H-pyran-2-yl)undeca-2,4,8,10-tetraen-1-yl)carbamate]", "values": [{"measurement": "IC50", "setting": "[1]", "result": 152, "unit": "nM"}, {"measurement": "proteins identified in the pull-down eluate", "setting": "[2]", "result": "CRM1 having the highest area"}]}]}
